Reference: ChEMBL document CHEMBL1143406 (Antimicrob Agents Chemother, 2007)

Legend:
Type in all cases: ADME, organism-based
[1] = AUC (24 hrs) in HIV-negative human at 600 mg, po administered every 24 hrs coadministered with 300 mg of atazanavir every 12 hrs; design: dose 600 mg, time < 24 hr, route oral; conditions: plasma
[2] = test system: Homo sapiens; assay: Terminal apparent distribution volume in HIV-negative human at 600 mg, po administered every 24 hrs coadministered with 400 mg of atazanavir every 12 hrs; conditions: in vivo
[3] = Cmax in HIV-negative human at 600 mg, po administered every 24 hrs coadministered with 400 mg of atazanavir every 12 hrs; design: dose 600 mg, route oral; conditions: in vivo
[4] = Apparent oral clearance in HIV-negative human at 600 mg, po administered every 24 hrs coadministered with 300 mg of atazanavir every 12 hrs; conditions: in vivo
[5] = test system: Homo sapiens; assay: Terminal apparent distribution volume in HIV-negative human at 600 mg, po administered every 24 hrs coadministered with 300 mg of atazanavir every 12 hrs; conditions: in vivo
[6] = Tmax in HIV-negative human at 600 mg, po administered every 24 hrs coadministered with 300 mg of atazanavir every 12 hrs; conditions: in vivo
[7] = Tmax in HIV-negative human at 600 mg, po administered every 24 hrs coadministered with 400 mg of atazanavir every 12 hrs; conditions: in vivo
[8] = Cmax in HIV-negative human at 600 mg, po administered every 24 hrs coadministered with 300 mg of atazanavir every 12 hrs; design: dose 600 mg, route oral; conditions: in vivo
[9] = AUC (24 hrs) in HIV-negative human at 600 mg, po administered every 24 hrs coadministered with 400 mg of atazanavir every 12 hrs; design: time < 24 hr, dose 600 mg, route oral; conditions: plasma
[10] = Apparent oral clearance in HIV-negative human at 600 mg, po administered every 24 hrs coadministered with 400 mg of atazanavir every 12 hrs; conditions: in vivo

CO[C@H]1/C=C/O[C@@]2(C)Oc3c(C)c(O)c4c(O)c(c(/C=N/N5CCN(C)CC5)c(O)c4c3C2=O)NC(=O)/C(C)=C\C=C\[C@H](C)[C@H](O)[C@@H](C)[C@@H](O)[C@@H](C)[C@H](OC(C)=O)[C@@H]1C [RIFAMPIN]
AUC at 24 h [1]: 45700 ng·h/mL | Vbeta [2]: 33 L | Cmax [3]: 10100 ng/mL | CL/F [4]: 252 mL/min | Vbeta [5]: 32 L | Tmax [6]: 2.7 h | Tmax [7]: 2.7 h | Cmax [8]: 9490 ng/mL | AUC at 24 h [9]: 41700 ng·h/mL | CL/F [10]: 275 mL/min
